Literature values, collected in patent US20160331794A1, “COMPOSITION FOR USE IN THE TREATMENT OF PERSISTENT COUGH” (ABOCA S.P.A SOCIETÁ AGRICOLA, priority 2013, published 2016).

What was measured:
cough = details: Lee et al. 2000; cited from earlier work
night cough in children = details: Yoder et al. 2006; cited from earlier work

Compound	efficacy in the treatment of coughs versus placebo (cough)	diminishing night cough in children versus placebo (night cough in children)
COc1ccc2c(c1)[C@]13CCCC[C@@H]1[C@H](C2)N(C)CC3 [dextromethorphan]	only marginally better than the placebo	Neither dextromethorphan nor diphenhydramine have been found to be better than the placebo
CN(C)CCOC(c1ccccc1)c1ccccc1 [diphenhydramine]		Neither dextromethorphan nor diphenhydramine have been found to be better than the placebo
